Laboratory results taken from PMC4264749, “Phlebotomy Treatment for Elimination of Perfluoroalkyl Acids in a Highly Exposed Family: A Retrospective Case-Series” (PLoS ONE, 2014).
Like-named read-outs stand apart in the source and are kept apart here.

How the values were obtained:
[1] = Serum PFAA concentrations in family members during intermittent phlebotomy (HPLC-MS/MS); format: in vivo, human; conditions: for Serum concentration before treatment: before phlebotomy
Text: After receiving informed consent, intermittent phlebotomy was undertaken at an overall rate (Table 2) that was equal to or less than the maximum rate of what is done for routine blood donations at the Canadian Blood Services: ∼500 ccs of whole blood every 56 days. Frequency and timing of blood removal was not consistent between family members because of their personal availability, success at each time of venesection, and compliance of each participant. […] Mineral supplementation was discussed and was taken by each participant.
All serum samples were submitted to ALS Laboratories (Edmonton, AB) for quantitative analysis of PFAAs (see Supporting Information, S1 Table). Samples were extracted by solid phase extraction and concentrations of PFHxS, PFOS, and PFOA were determined using high performance liquid chromatography/tandem mass spectrometry. Formic acid (0.1 M) along with a mixture of isotopically labeled PFAAs (Wellington Laboratories, Guelph, Ontario) were added to 1.0 mL of serum. The mixture was vortexed, sonicated, and subjected to solid phase extraction. The extract was concentrated to 100 uL and an instrument performance internal standard was added along with 200 uL of 90% 20 mM aqueous acetic acid/10% methanol. Procedural blanks were run with each set of samples, and method limits of quantification (LOQ) were 0.5 ng/mL for each analyte. For the few PFAA levels that fell below this LOQ (shown as hollow circles in Figs. 1–3), LOQ/√2 (i.e. 0.35 ng/mL) was substituted for purposes of data analysis. PFHxS, PFOS, and PFOA levels in all participating family members were >LOQ throughout the intervention except for 3 PFOS measurements out of 16 total measurements in the 3rd child and one PFOA measurement out of 9 total measurements in the […]. Written informed consent was given by participants (or parents in the case of children) for their clinical records to be used in this study.

[2] = parameters: method as in PMID 17805419; conditions: cited from earlier work
[3] = parameters: method as in PMID 23980546; conditions: urinary excretion, China, cited from earlier work
[4] = Apparent elimination half-life (HLapp) and phlebotomy efficiency coefficient in treated family members; format: in vivo, human; conditions: family members with regular phlebotomy, except parent
Text: To evaluate the effect of phlebotomy, versus the expected rate of intrinsic elimination, we graphically and statistically compared the observed decreasing trends in each family member (fitted to a simple exponential decay model) with reference population elimination kinetics. Specifically, for the reference population of occupationally exposed retirees, we considered: i) the 95% confidence interval of the geometric mean elimination rate for each PFAA, and ii) the fastest individual rate of elimination rate among the reference population. For comparative purposes, the concentration of each PFAA in serum on the first day of the intervention was taken as time zero, and the models were forced through this starting point.
One metric that was calculated to compare the efficiency of the phlebotomy for removal of different PFAAs in each family member was termed the phlebotomy efficiency coefficient (EC). This was based on the subtractive difference between HLapp (yrs) in each treated family member and the geometric mean HLin (yrs) of the reference population according to Equation 1 . [drawing 1] (1)

[5] = parameters: method as in earlier work; conditions: cited from earlier work

O=C(O)C(F)(F)C(F)(F)C(F)(F)C(F)(F)C(F)(F)C(F)(F)C(F)(F)F [PFOA, perfluorooctanoic acid]
Serum concentration before treatment ([1]; 1st Child): 4.7 ng/mL
Serum concentration ([1]; 1st Child, sampling date 2009.10.12): 3.5 ng/mL
Serum concentration ([1]; 1st Child, sampling date 2009.12.24): 4.4 ng/mL
Serum concentration ([1]; 1st Child, sampling date 2009.6.9): 4.7 ng/mL
Serum concentration ([1]; 1st Child, sampling date 2009.9.9): 3.9 ng/mL
Serum concentration ([1]; 1st Child, sampling date 2010.10.14): 2.8 ng/mL
Serum concentration ([1]; 1st Child, sampling date 2010.1.17): 4.0 ng/mL
Serum concentration ([1]; 1st Child, sampling date 2010.2.11): 2.0 ng/mL
Serum concentration ([1]; 1st Child, sampling date 2010.4.14): 3.8 ng/mL
Serum concentration ([1]; 1st Child, sampling date 2011.12.5): 1.3 ng/mL
Serum concentration ([1]; 1st Child, sampling date 2011.5.17, LOD=0.5ng/mL): 1.8 ng/mL
Serum concentration ([1]; 1st Child, sampling date 2011.8.12, LOD=0.5ng/mL): 2.7 ng/mL
Serum concentration ([1]; 1st Child, sampling date 2012.12.28, LOD=0.5ng/mL): 1.5 ng/mL
Serum concentration ([1]; 1st Child, sampling date 2012.4.24): 2.3 ng/mL
Serum concentration ([1]; 1st Child, sampling date 2012.8.21): 1.7 ng/mL
Serum concentration ([1]; 1st Child, sampling date 2013.3.30): 1.5 ng/mL
Serum concentration ([1]; 1st Child, sampling date 2013.7.30): 1.2 ng/mL
Serum concentration before treatment ([1]; 2nd Child): 8.7 ng/mL
Serum concentration ([1]; 2nd Child, sampling date 2009.10.24): 5.0 ng/mL
Serum concentration ([1]; 2nd Child, sampling date 2009.6.6): 8.7 ng/mL
Serum concentration ([1]; 2nd Child, sampling date 2009.7.2): 7.1 ng/mL
Serum concentration ([1]; 2nd Child, sampling date 2009.7.30): 9.2 ng/mL
Serum concentration ([1]; 2nd Child, sampling date 2009.8.24): 7.4 ng/mL
Serum concentration ([1]; 2nd Child, sampling date 2009.9.27): 4.5 ng/mL
Serum concentration ([1]; 2nd Child, sampling date 2010.1.3): 4.3 ng/mL
Serum concentration ([1]; 2nd Child, sampling date 2010.2.15): 4.9 ng/mL
Serum concentration ([1]; 2nd Child, sampling date 2011.10.2): 3.7 ng/mL
Serum concentration ([1]; 2nd Child, sampling date 2011.12.24): 3.8 ng/mL
Serum concentration ([1]; 2nd Child, sampling date 2011.4.27): 3.7 ng/mL
Serum concentration ([1]; 2nd Child, sampling date 2011.8.14): 3.6 ng/mL
Serum concentration ([1]; 2nd Child, sampling date 2012.12.24): 3.0 ng/mL
Serum concentration ([1]; 2nd Child, sampling date 2012.4.6): 3.0 ng/mL
Serum concentration ([1]; 2nd Child, sampling date 2013.5.11.): 2.1 ng/mL
Serum concentration ([1]; 2nd Child, sampling date 2013.7.15): 1.9 ng/mL
Serum concentration before treatment ([1]; 3rd Child): 8.2 ng/mL
Serum concentration ([1]; 3rd Child, sampling date 2010.3.12): 6.6 ng/mL
Serum concentration ([1]; 3rd Child, sampling date 2010.5.23): 5.3 ng/mL
Serum concentration ([1]; 3rd Child, sampling date 2011.1.6): 4.2 ng/mL
Serum concentration ([1]; 3rd Child, sampling date 2011.11.26): 2.2 ng/mL
Serum concentration ([1]; 3rd Child, sampling date 2011.2.24): 3.3 ng/mL
Serum concentration ([1]; 3rd Child, sampling date 2011.4.30): 3.0 ng/mL
Serum concentration ([1]; 3rd Child, sampling date 2011.6.13): 3.2 ng/mL
Serum concentration ([1]; 3rd Child, sampling date 2011.9.27): 3.0 ng/mL
Serum concentration ([1]; 3rd Child, sampling date 2012.10.16): 2.1 ng/mL
Serum concentration ([1]; 3rd Child, sampling date 2012.1.8): 2.9 ng/mL
Serum concentration ([1]; 3rd Child, sampling date 2012.12.9): 2.5 ng/mL
Serum concentration ([1]; 3rd Child, sampling date 2012.3.4): 3.2 ng/mL
Serum concentration ([1]; 3rd Child, sampling date 2012.4.28): 3.2 ng/mL
Serum concentration ([1]; 3rd Child, sampling date 2013.2.5): 2.2 ng/mL
Serum concentration ([1]; 3rd Child, sampling date 2013.3.30): 2.2 ng/mL
Serum concentration before treatment ([1]; 4th Child): 6.8 ng/mL
Serum concentration before treatment ([1]; Average of 6 family members): 5.7 ng/mL
Serum concentration before treatment ([1]; Parent one): 3.0 ng/mL
Serum concentration ([1]; Parent one, sampling date 2009.10.11): 1.6 ng/mL
Serum concentration ([1]; Parent one, sampling date 2009.10.12): 2.1 ng/mL
Serum concentration ([1]; Parent one, sampling date 2009.11.12): 2.0 ng/mL
Serum concentration ([1]; Parent one, sampling date 2009.12.14): 2.1 ng/mL
Serum concentration ([1]; Parent one, sampling date 2009.2.2): 3.0 ng/mL
Serum concentration ([1]; Parent one, sampling date 2009.5.18): 2.5 ng/mL
Serum concentration ([1]; Parent one, sampling date 2009.6.1): 3.1 ng/mL
Serum concentration ([1]; Parent one, sampling date 2009.7.4): 2.6 ng/mL
Serum concentration ([1]; Parent one, sampling date 2009.9.1): 2.3 ng/mL
Serum concentration ([1]; Parent one, sampling date 2010.10.10): 2.2 ng/mL
Serum concentration ([1]; Parent one, sampling date 2010.1.17): 2.0 ng/mL
Serum concentration ([1]; Parent one, sampling date 2010.3.13): 2.6 ng/mL
Serum concentration ([1]; Parent one, sampling date 2011.1.6): 1.6 ng/mL
Serum concentration ([1]; Parent one, sampling date 2011.11.26): 0.9 ng/mL
Serum concentration ([1]; Parent one, sampling date 2011.2.24): 1.7 ng/mL
Serum concentration ([1]; Parent one, sampling date 2011.4.30): 1.3 ng/mL
Serum concentration ([1]; Parent one, sampling date 2011.6.22): 1.5 ng/mL
Serum concentration ([1]; Parent one, sampling date 2011.8.4): 1.4 ng/mL
Serum concentration ([1]; Parent one, sampling date 2011.9.27): 1.2 ng/mL
Serum concentration ([1]; Parent one, sampling date 2012..12.28): 1.0 ng/mL
Serum concentration ([1]; Parent one, sampling date 2012.1.14): 1.6 ng/mL
Serum concentration ([1]; Parent one, sampling date 2012.11.1): 1.2 ng/mL
Serum concentration ([1]; Parent one, sampling date 2012.3.4): 1.3 ng/mL
Serum concentration ([1]; Parent one, sampling date 2012.4.29): 1.2 ng/mL
Serum concentration ([1]; Parent one, sampling date 2012.7.8): 1.0 ng/mL
Serum concentration ([1]; Parent one, sampling date 2012.8.21): 1.2 ng/mL
Serum concentration ([1]; Parent one, sampling date 2013.10.27): 1.2 ng/mL
Serum concentration ([1]; Parent one, sampling date 2013.2.18): 1.2 ng/mL
Serum concentration ([1]; Parent one, sampling date 2013.3.30): 1.1 ng/mL
Serum concentration ([1]; Parent one, sampling date 2013.5.11): 1.0 ng/mL
Serum concentration ([1]; Parent one, sampling date 2013.7.15): 1.0 ng/mL
Serum concentration ([1]; Parent one, sampling date 2013.9.8): 0.9 ng/mL
Serum concentration before treatment ([1]; Parent two): 2.5 ng/mL
Serum concentration ([1]; Parent two, sampling date 2009.6.1): 2.5 ng/mL
Serum concentration ([1]; Parent two, sampling date 2009.7.7): 1.8 ng/mL
Serum concentration ([1]; Parent two, sampling date 2009.8.24): 1.6 ng/mL
Serum concentration ([1]; Parent two, sampling date 2010.1.3): 1.3 ng/mL
Serum concentration ([1]; Parent two, sampling date 2012.3.13): 1.3 ng/mL
Serum concentration ([1]; Parent two, sampling date 2013.1.1): 1.0 ng/mL
Serum concentration ([1]; Parent two, sampling date 2013.10.6): 0.9 ng/mL
Serum concentration ([1]; Parent two, sampling date 2013.6.22): 1.1 ng/mL
HLin of fastest eliminator in the reference population ([2]; reference population of occupationally exposed retirees (26 individuals)): 1.5 yrs
95% confidence interval of the geometric mean HLin ([2]; reference population of occupationally exposed retirees): 3.0–4.1 yrs
HLin, 95% confidence interval ([2]; serum, retirees >55 yrs, previously occupationally exposed): 3.1–4.4 yrs
HLapp ([3]; males and post-menopausal females): 2.6 years
HLapp ([3]; reproductive-aged females): 2.1 years
HLapp compared with geometric mean HLin of reference population [4]: significantly shorter
95th percentile of serum concentration among Canadians ([5]; 2009–2011): 5 ng/mL
median serum concentration among Canadians [5]: 2.7 ng/mL
